Biological target: recombinant human HPK1 (Homo sapiens (Human), UniProt Q92918)
Assay: HPK1 kinase assay (ADP-Glo)
Type: biochemical
Conditions: 25 μM ATP, MBP substrate
Method: HPK1 kinase activity was measured by Promega's ADP-Glo™ kinase assay. In this assay, 5 ng of recombinant human HPK1 (signalchem) is incubated with 5 μL of compounds (0.5% DMSO), 5 μL of MBP (0.5 μg/μl) and 5 μL of ATP (25 μM) in buffer (40 mM Tris, 7.5; 20 mM MgCl2; 0.1 mg/ml BSA; 5 μM DTT). The assay was started by incubating the reaction mixture in a 96-well plate at 30′ C for 40 minutes. After the incubation, 25 uL ADP-Glo reagent was added and the reaction was incubated at room temperature for 40-min to stop the reaction and degrade residual ATP. The ADP product was then converted to ATP by adding 50 uL per well of detection reagent. Luminescence was detected after 30-min room temperature incubation with the Molecular device I3X plate reader. The IC50 values were calculated from a series of percent inhibition values determined at a range of inhibitor concentration using software routines as implemented in the GraphPad Prism 7 software and SigmaPlot13.0.

Sequence of recombinant human HPK1 (Q92918 whole entry): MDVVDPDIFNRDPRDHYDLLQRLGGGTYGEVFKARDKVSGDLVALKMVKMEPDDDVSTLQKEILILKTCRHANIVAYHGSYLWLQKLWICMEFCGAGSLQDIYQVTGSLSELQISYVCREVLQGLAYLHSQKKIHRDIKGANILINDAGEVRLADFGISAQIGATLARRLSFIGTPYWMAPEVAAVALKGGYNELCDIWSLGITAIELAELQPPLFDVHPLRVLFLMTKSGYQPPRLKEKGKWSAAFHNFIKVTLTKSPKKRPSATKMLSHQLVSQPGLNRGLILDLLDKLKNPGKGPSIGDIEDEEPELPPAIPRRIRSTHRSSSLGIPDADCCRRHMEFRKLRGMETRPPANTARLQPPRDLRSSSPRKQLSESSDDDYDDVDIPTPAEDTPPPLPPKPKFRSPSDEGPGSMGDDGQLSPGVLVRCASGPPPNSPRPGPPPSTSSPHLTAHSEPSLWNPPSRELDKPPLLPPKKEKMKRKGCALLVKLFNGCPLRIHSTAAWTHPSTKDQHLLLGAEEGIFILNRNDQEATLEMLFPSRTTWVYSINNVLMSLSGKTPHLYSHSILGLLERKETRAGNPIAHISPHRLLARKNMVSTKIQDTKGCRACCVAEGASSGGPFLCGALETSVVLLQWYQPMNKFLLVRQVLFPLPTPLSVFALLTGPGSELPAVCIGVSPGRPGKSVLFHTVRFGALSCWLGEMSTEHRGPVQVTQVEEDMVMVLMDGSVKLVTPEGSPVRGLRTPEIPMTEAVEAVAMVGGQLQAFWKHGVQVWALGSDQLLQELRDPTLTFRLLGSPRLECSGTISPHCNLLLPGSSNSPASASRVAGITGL

Row | IC50 [nM] | Compound
1 | < 100 | C=Cc1c(F)cc2[nH]ncc2c1-c1ccc2nc(NC(=O)C3CC3)cn2c1 [Example 235, N-(6-(6-fluoro-5-vinyl-1H-indazol-4-yl)imidazo[1,2-a]pyridin-2-yl)cyclopropanecarboxamide]
2 | 101 to 500 | CO[C@H](C)[C@@H](OC)c1c(F)c(Cl)c(-c2ccn3nc(NC(=O)[C@@H]4C[C@@H]4F)cc3c2)c2cn[nH]c12 [Example 666, (1S,2S)-N-(5-(5-chloro-7-((1S,2R)-1,2-dimethoxypropyl)-6-fluoro-1H-indazol-4-yl)pyrazolo[1,5-a]pyridin-2-yl)-2-fluorocyclopropane-1-carboxamide]
3 | < 100 | Cn1nnnc1-c1c(F)c(Cl)c(-c2ccc3nc(NC(=O)[C@@H]4C[C@@H]4F)cn3c2)c2cn[nH]c12 [Example 350, (1S,2S)-N-(6-(5-chloro-6-fluoro-7-(1-methyl-1H-tetrazol-5-yl)-1H-indazol-4-yl)imidazo[1,2-a]pyridin-2-yl)-2-fluorocyclopropane-1-carboxamide]
4 | > 1000 | O=C(Nc1nc2ccc(-c3c(F)c(C(F)(F)F)cc4[nH]ncc34)nc2s1)[C@@H]1C[C@@H]1F [Example 171, (1S,2S)-2-fluoro-N-(5-(5-fluoro-6-(trifluoromethyl)-1H-indazol-4-yl)thiazolo[5,4-b]pyridin-2-yl)cyclopropane-1-carboxamide]
5 | < 100 | C[C@@H](c1c(F)c(Cl)c(-c2ccc3nc(NC(=O)[C@@H]4C[C@@H]4F)cn3c2)c2cn[nH]c12)n1ncnn1 [Example 408, (1S,2S)-N-(6-(7-((S)-1-(2H-tetrazol-2-yl)ethyl)-5-chloro-6-fluoro-1H-indazol-4-yl)imidazo[1,2-a]pyridin-2-yl)-2-fluorocyclopropane-1-carboxamide]
6 | < 100 | CCN(C)c1c(F)c(SC)c(-c2ccc3nc(NC(=O)[C@@H]4C[C@@H]4F)sc3n2)c2cn[nH]c12 [Example 218, (1S,2S)-N-(5-(7-(ethyl(methyl)amino)-6-fluoro-5-(methylthio)-1H-indazol-4-yl)thiazolo[5,4-b]pyridin-2-yl)-2-fluorocyclopropane-1-carboxamide]
7 | 101 to 500 | O=C(Nc1nc2ccc(-c3c(Cl)c(F)c(N4CCOCC4)c4[nH]ncc34)cc2s1)[C@@H]1C[C@@H]1F [Example 74, (1S,2S)-N-(6-(5-chloro-6-fluoro-7-morpholino-1H-indazol-4-yl)benzo[d]thiazol-2-yl)-2-fluorocyclopropane-1-carboxamide]
8 | < 100 | CN(C)C(=O)CNc1c(F)c(Cl)c(-c2ccc3nc(NC(=O)[C@@H]4C[C@@H]4F)cn3c2)c2cn[nH]c12 [Example 397, (1S,2S)-N-(6-(5-chloro-7-((2-(dimethylamino)-2-oxoethyl)amino)-6-fluoro-1H-indazol-4-yl)imidazo[1,2-a]pyridin-2-yl)-2-fluorocyclopropane-1-carboxamide]
9 | < 100 | Cc1c(F)c(C)c2[nH]ncc2c1-c1ccn2nc(NC(=O)[C@@H]3C[C@@H]3F)cc2c1 [Example 477, (1S,2S)-2-fluoro-N-(5-(6-fluoro-5,7-dimethyl-1H-indazol-4-yl)pyrazolo[1,5-a]pyridin-2-yl)cyclopropane-1-carboxamide]
10 | 501 to 1000 | O=C(Nc1cn2cc(-c3c(CO)ccc4[nH]ncc34)ccc2n1)C1CC1 [Example 233, N-(6-(5-(hydroxymethyl)-1H-indazol-4-yl)imidazo[1,2-a]pyridin-2-yl)cyclopropanecarboxamide]
11 | < 100 | CCOc1c(F)c(Cl)c(-c2ccc3nc(NC(=O)[C@@H]4C[C@@H]4F)sc3n2)c2cn[nH]c12 [Example 149, (1S,2S)—N-(5-(5-chloro-7-ethoxy-6-fluoro-1H-indazol-4-yl)thiazolo[5,4-b]pyridin-2-yl)-2-fluorocyclopropane-1-carboxamide]
12 | < 100 | CCNc1c(F)c(Cl)c(-c2ccn3nc(NC(=O)[C@@H]4C[C@@H]4F)cc3c2)c2cn[nH]c12 [Example 496, (1S,2S)-N-(5-(5-chloro-7-(ethylamino)-6-fluoro-1H-indazol-4-yl)pyrazolo[1,5-a]pyridin-2-yl)-2-fluorocyclopropane-1-carboxamide]
13 | < 100 | CN(Nc1c(F)c(Cl)c(-c2ccc3nc(NC(=O)[C@@H]4C[C@@H]4F)sc3n2)c2cn[nH]c12)C(=O)OC(C)(C)C [Example 192, tert-butyl 2-(5-chloro-6-fluoro-4-(2-((1S,2S)-2-fluorocyclopropane-1-carboxamido)thiazolo[5,4-b]pyridin-5-yl)-1H-indazol-7-yl)-1-methylhydrazine-1-carboxylate]
14 | < 100 | CN(CCc1ccncc1)c1c(F)c(Cl)c(-c2ccn3nc(NC(=O)[C@@H]4C[C@@H]4F)cc3c2)c2cn[nH]c12 [Example 616, (1S,2S)-N-(5-(5-chloro-6-fluoro-7-(methyl(2-(pyridin-4-yl)ethyl)amino)-1H-indazol-4-yl)pyrazolo[1,5-a]pyridin-2-yl)-2-fluorocyclopropane-1-carboxamide]
15 | < 100 | C[C@@H]1[C@H](C(=O)Nc2cc3cc(-c4c(Cl)c(F)c(N(C)C)c5[nH]ncc45)ccn3n2)[C@H]1c1cnn(C)c1 [Example 648, (1S,2S,3S)-N-(5-(5-chloro-7-(dimethylamino)-6-fluoro-1H-indazol-4-yl)pyrazolo[1,5-a]pyridin-2-yl)-2-methyl-3-(1-methyl-1H-pyrazol-4-yl)cyclopropane-1-carboxamide]
16 | < 100 | CC(NC1COC1)c1c(F)c(Cl)c(-c2ccc3nc(NC(=O)[C@@H]4C[C@@H]4F)cn3c2)c2cn[nH]c12 (stereo partly drawn) [Example 427, (1S,2S)-N-(6-(5-chloro-6-fluoro-7-(1-(oxetan-3-ylamino)ethyl)-1H-indazol-4-yl)imidazo[1,2-a]pyridin-2-yl)-2-fluorocyclopropane-1-carboxamide]
17 | < 100 | Cc1c(F)c(OC(F)(F)F)c2[nH]ncc2c1-c1ccn2nc(NC(=O)[C@@H]3C[C@@H]3F)cc2c1 [Example 592, (1S,2S)-2-fluoro-N-(5-(6-fluoro-5-methyl-7-(trifluoromethoxy)-1H-indazol-4-yl)pyrazolo[1,5-a]pyridin-2-yl)cyclopropane-1-carboxamide]
18 | < 100 | Cc1c(F)c(C(F)(F)F)c2[nH]ncc2c1-c1ccc2nc(NC(=O)[C@@H]3C[C@@H]3F)cn2c1 [Example 263, (1S,2S)-2-fluoro-N-(6-(6-fluoro-5-methyl-7-(trifluoromethyl)-1H-indazol-4-yl)imidazo[1,2-a]pyridin-2-yl)cyclopropane-1-carboxamide]
19 | > 1000 | CSc1ccc(-c2ccc3nc(NC(=O)[C@@H]4C[C@@H]4F)sc3c2)c2cn[nH]c12 [Example 142, (1S,2S)-2-fluoro-N-(6-(7-(methylthio)-1H-indazol-4-yl)benzo[d]thiazol-2-yl)cyclopropane-1-carboxamide]
20 | 501 to 1000 | Cc1ccc2[nH]ncc2c1-c1ccc2nc(NC(=O)C3CCC3)sc2c1 [Example 4, N-(6-(5-methyl-1H-indazol-4-yl)benzo[d]thiazol-2-yl)cyclobutanecarboxamide]
21 | < 100 | CNC1CCC(N(C)c2c(F)c(Cl)c(-c3ccn4nc(NC(=O)[C@@H]5C[C@@H]5F)cc4c3)c3cn[nH]c23)CC1 (stereo partly drawn) [Example 504, (1S,2S)-N-(5-(5-chloro-6-fluoro-7-(methyl((1R,4R)-4-(methylamino)cyclohexyl)amino)-1H-indazol-4-yl)pyrazolo[1,5-a]pyridin-2-yl)-2-fluorocyclopropane-1-carboxamide]
22 | 501 to 1000 | Cc1c(F)cc2[nH]nc(Br)c2c1-c1ccc2nc(NC(=O)[C@@H]3C[C@@H]3F)sc2c1 [Example 49, (1S,2S)-N-(6-(3-bromo-6-fluoro-5-methyl-1H-indazol-4-yl)benzo[d]thiazol-2-yl)-2-fluorocyclopropane-1-carboxamide]
23 | < 100 | CC(Nc1c(F)c(Cl)c(-c2ccc3nc(NC(=O)[C@@H]4C[C@@H]4F)cn3c2)c2cn[nH]c12)C(F)F (stereo partly drawn) [Example 425, (1S,2S)-N-(6-(5-chloro-7-((1,1-difluoropropan-2-yl)amino)-6-fluoro-1H-indazol-4-yl)imidazo[1,2-a]pyridin-2-yl)-2-fluorocyclopropane-1-carboxamide]
24 | < 100 | O=C(Nc1cn2cc(-c3c(Cl)c(F)c(C4CCCC4)c4[nH]ncc34)ccc2n1)[C@@H]1C[C@@H]1F [Example 406, (1S,2S)-N-(6-(5-chloro-7-cyclopentyl-6-fluoro-1H-indazol-4-yl)imidazo[1,2-a]pyridin-2-yl)-2-fluorocyclopropane-1-carboxamide]
25 | < 100 | COC1CN(c2c(F)c(Cl)c(-c3ccn4nc(NC(=O)[C@@H]5C[C@@H]5F)cc4c3)c3cn[nH]c23)C1 [Example 624, (1S,2S)-N-(5-(5-chloro-6-fluoro-7-(3-methoxyazetidin-1-yl)-1H-indazol-4-yl)pyrazolo[1,5-a]pyridin-2-yl)-2-fluorocyclopropane-1-carboxamide]
26 | < 100 | C[S+]([O-])c1c(F)c(Cl)c(-c2ccc3nc(NC(=O)[C@@H]4C[C@@H]4F)cn3c2)c2cn[nH]c12 (stereo partly drawn) [Example 303, (1S,2S)-N-(6-(5-chloro-6-fluoro-7-(methylsulfinyl)-1H-indazol-4-yl)imidazo[1,2-a]pyridin-2-yl)-2-fluorocyclopropane-1-carboxamide]
27 | < 100 | O=C(Nc1cn2cc(-c3c(Cl)c(F)c(N4CCCC4=O)c4[nH]ncc34)ccc2n1)[C@@H]1C[C@@H]1F [Example 336, (1S,2S)-N-(6-(5-chloro-6-fluoro-7-(2-oxopyrrolidin-1-yl)-1H-indazol-4-yl)imidazo[1,2-a]pyridin-2-yl)-2-fluorocyclopropane-1-carboxamide]

Reference: US11649255B2, “Indazoles as hematopoietic progenitor kinase 1 (HPK1) inhibitors and methods using same” (1st Biotherapeutics, Inc., priority 2020, dated 2023)
